Assay results reported in ChEMBL document CHEMBL1128593, “Chemistry and antimicrobial activity of caryoynencins analogs” (1995).
Values after ≈ are worked out from the molar mass of the structure shown.

Assays:
[1] = tested on: Shigella flexneri; experiment: Antimicrobial activity of the Compound was tested for minimum inhibitory concentration against Shigella flexneriII D642; format: functional
[2] = tested on: Klebsiella pneumoniae; experiment: Antimicrobial activity of the Compound was tested for minimum inhibitory concentration against Klebsiella pneumoniae 806; format: functional
[3] = tested on: Aspergillus fumigatus; experiment: Antimicrobial activity of the Compound was tested for minimum inhibitory concentration against Aspergillus fumigatus 10569; format: functional
[4] = tested on: Trichophyton rubrum; experiment: Antimicrobial activity of the Compound was tested for minimum inhibitory concentration against Trichophyton rubrum; format: functional
[5] = tested on: Candida albicans; experiment: Antimicrobial activity of the Compound was tested for minimum inhibitory concentration against Candida albicans; format: functional
[6] = tested on: Escherichia coli; experiment: Antimicrobial activity of the Compound was tested for minimum inhibitory concentration against Escherichia coli 609; format: functional
[7] = tested on: Proteus vulgaris; experiment: Antimicrobial activity of the Compound was tested for minimum inhibitory concentration against Proteus vulgaris 1420; format: functional
[8] = tested on: Pseudomonas aeruginosa; experiment: Antimicrobial activity of the Compound was tested for minimum inhibitory concentration against Pseudomonas aeruginosa N07; format: functional
[9] = tested on: Staphylococcus aureus; experiment: Antimicrobial activity of the Compound was tested for minimum inhibitory concentration against Staphylococcus aureus 209P; format: functional
[10] = tested on: Trichophyton interdigitale; experiment: Antimicrobial activity of the Compound was tested for minimum inhibitory concentration against Trichophyton interdigitale; format: functional
[11] = tested on: Cryptococcus neoformans; experiment: Antimicrobial activity of the Compound was tested for minimum inhibitory concentration against Cryptococcus neoformans 58063; format: functional
[12] = tested on: Enterococcus faecalis; experiment: Antimicrobial activity of the Compound was tested for minimum inhibitory concentration against Enterococcus faecalis 681; format: functional
[13] = tested on: Candida albicans; experiment: Antimicrobial activity of the Compound was tested for minimum inhibitory concentration against Candida albicans SC; format: functional
[14] = tested on: Trichophyton benhamiae; experiment: Antimicrobial activity of the Compound was tested for minimum inhibitory concentration against Trichophyton mentagrophytes; format: functional, Arthroderma benhamiae
[15] = tested on: Enterobacter cloacae; experiment: Antimicrobial activity of the Compound was tested for minimum inhibitory concentration against Enterobacter cloacae 963; format: functional
[16] = tested on: Salmonella enteritidis; experiment: Antimicrobial activity of the Compound was tested for minimum inhibitory concentration against Salmonella enteritidis; format: functional, Salmonella enterica subsp. enterica serovar Enteritidis; details: Salmonella enterica
[17] = tested on: Escherichia coli; experiment: Antimicrobial activity of the Compound was tested for minimum inhibitory concentration against Escherichia coli NIHJ; format: functional
[18] = tested on: Klebsiella pneumoniae; experiment: Antimicrobial activity of the Compound was tested for minimum inhibitory concentration against Klebsiella pneumoniae 846(R); format: functional
[19] = tested on: Trichophyton benhamiae; experiment: Antimicrobial activity of the Compound was tested for minimum inhibitory concentration against Trichophyton mentagrophytes SC; format: functional, Arthroderma benhamiae
[20] = tested on: Staphylococcus aureus; experiment: Antimicrobial activity of the Compound was tested for minimum inhibitory concentration against Staphylococcus aureus 56R; format: functional
[21] = tested on: Bacillus subtilis; experiment: Antimicrobial activity of the Compound was tested for minimum inhibitory concentration against Bacillus subtilis ATCC 6633; format: functional
[22] = tested on: Nannizzia gypsea; experiment: Antimicrobial activity of the Compound was tested for minimum inhibitory concentration against Microsporum gypseum 11268; format: functional
[23] = tested on: Serratia marcescens; experiment: Antimicrobial activity of the Compound was tested for minimum inhibitory concentration against Serratia marcescens 1184; format: functional
[24] = tested on: Mucor mucedo; experiment: Antimicrobial activity of the Compound was tested for minimum inhibitory concentration against Mucor mucedo 14358; format: functional
[25] = tested on: Trichophyton rubrum; experiment: Antimicrobial activity of the Compound was tested for minimum inhibitory concentration against Trichophyton rubrum SC; format: functional
[26] = tested on: Pseudomonas aeruginosa; experiment: Antimicrobial activity of the Compound was tested for minimum inhibitory concentration against Pseudomonas aeruginosa 1001; format: functional
[27] = tested on: Staphylococcus aureus; experiment: Antimicrobial activity of the Compound was tested for minimum inhibitory concentration against Staphylococcus aureus 535 (MRSA); format: functional
[28] = tested on: Shigella flexneri; experiment: Antimicrobial activity of the Compound was tested for minimum inhibitory concentration against Shigella flexneri IID642; format: functional

SMILES	MIC [1]	MIC [2]	MIC [4]	MIC [5]	MIC [6]	MIC [7]	MIC [8]	MIC [9]	MIC [10]	MIC [12]	MIC [14]	MIC [15]	MIC [16]	MIC [17]	MIC [18]	MIC [20]	MIC [21]	MIC [23]	MIC [26]	MIC [27]	other results
C#CC#CC#CC#CC(O)/C=C/C=C/C (configuration not stated)	0.8 µg/mL (≈ 4.12 µM)	> 25 µg/mL	< 0.1 µg/mL	3.1 µg/mL (≈ 16 µM)	> 25 µg/mL	0.8 µg/mL (≈ 4.12 µM)	> 25 µg/mL	0.2 µg/mL (≈ 1.03 µM)	< 0.1 µg/mL	3.1 µg/mL (≈ 16 µM)	< 0.1 µg/mL	> 25 µg/mL	> 25 µg/mL	> 25 µg/mL	> 25 µg/mL	0.2 µg/mL (≈ 1.03 µM)	0.4 µg/mL (≈ 2.06 µM)	> 25 µg/mL	> 25 µg/mL	0.2 µg/mL (≈ 1.03 µM)	MIC [3]: 1.5 µg/mL (≈ 7.72 µM); MIC [11]: 0.8 µg/mL (≈ 4.12 µM); MIC [13]: 3.1 µg/mL (≈ 16 µM); MIC [19]: < 0.02 µg/mL; MIC [22]: 0.4 µg/mL (≈ 2.06 µM); MIC [24]: 0.2 µg/mL (≈ 1.03 µM); MIC [25]: < 0.02 µg/mL
C#CC#CC#CC#C/C=C/C=C/C(C)O (racemic)	0.8 µg/mL (≈ 4.12 µM)	1.5 µg/mL (≈ 7.72 µM)	0.2 µg/mL (≈ 1.03 µM)	1.5 µg/mL (≈ 7.72 µM)	0.8 µg/mL (≈ 4.12 µM)	0.8 µg/mL (≈ 4.12 µM)	> 25 µg/mL	0.2 µg/mL (≈ 1.03 µM)	0.8 µg/mL (≈ 4.12 µM)	3.1 µg/mL (≈ 16 µM)		> 25 µg/mL	0.8 µg/mL (≈ 4.12 µM)	0.8 µg/mL (≈ 4.12 µM)	0.8 µg/mL (≈ 4.12 µM)	0.2 µg/mL (≈ 1.03 µM)	0.8 µg/mL (≈ 4.12 µM)	0.8 µg/mL (≈ 4.12 µM)	> 25 µg/mL	0.2 µg/mL (≈ 1.03 µM)	
C#CC#CC#CC#C/C=C/C=C/[C@@H](C)O	0.4 µg/mL (≈ 2.06 µM)	3.1 µg/mL (≈ 16 µM)	0.2 µg/mL (≈ 1.03 µM)	0.8 µg/mL (≈ 4.12 µM)	1.5 µg/mL (≈ 7.72 µM)	0.8 µg/mL (≈ 4.12 µM)	> 12.5 µg/mL	0.2 µg/mL (≈ 1.03 µM)	0.2 µg/mL (≈ 1.03 µM)	3.1 µg/mL (≈ 16 µM)	0.2 µg/mL (≈ 1.03 µM)	> 12.5 µg/mL	0.8 µg/mL (≈ 4.12 µM)	0.8 µg/mL (≈ 4.12 µM)	0.8 µg/mL (≈ 4.12 µM)	0.2 µg/mL (≈ 1.03 µM)	0.8 µg/mL (≈ 4.12 µM)	0.8 µg/mL (≈ 4.12 µM)	> 12.5 µg/mL	0.1 µg/mL (≈ 0.515 µM)	
C#CC#CC#CC#C/C=C/C=C/[C@H](C)O	0.8 µg/mL (≈ 4.12 µM)	> 25 µg/mL	0.2 µg/mL (≈ 1.03 µM)	1.5 µg/mL (≈ 7.72 µM)	3.1 µg/mL (≈ 16 µM)	1.5 µg/mL (≈ 7.72 µM)	> 25 µg/mL	0.2 µg/mL (≈ 1.03 µM)	0.4 µg/mL (≈ 2.06 µM)	6.2 µg/mL (≈ 31.9 µM)	0.4 µg/mL (≈ 2.06 µM)	> 25 µg/mL	3.1 µg/mL (≈ 16 µM)	1.5 µg/mL (≈ 7.72 µM)	3.1 µg/mL (≈ 16 µM)	0.2 µg/mL (≈ 1.03 µM)	0.8 µg/mL (≈ 4.12 µM)	1.5 µg/mL (≈ 7.72 µM)	> 25 µg/mL	0.2 µg/mL (≈ 1.03 µM)	
C#CC#CC#CC#CC1(O)CCCCC1	6.2 µg/mL (≈ 31.6 µM)	> 25 µg/mL	0.8 µg/mL (≈ 4.08 µM)	6.2 µg/mL (≈ 31.6 µM)	> 25 µg/mL	3.1 µg/mL (≈ 15.8 µM)	> 25 µg/mL	1.5 µg/mL (≈ 7.64 µM)	1.5 µg/mL (≈ 7.64 µM)	12.5 µg/mL (≈ 63.7 µM)		> 25 µg/mL	25 µg/mL (≈ 127 µM)	25 µg/mL (≈ 127 µM)	12.5 µg/mL (≈ 63.7 µM)	1.5 µg/mL (≈ 7.64 µM)	6.2 µg/mL (≈ 31.6 µM)	> 25 µg/mL	> 25 µg/mL	0.8 µg/mL (≈ 4.08 µM)	
C#CC#CC#C/C=C/C=C/C(C)O (configuration not stated)		> 50 µg/mL	0.4 µg/mL (≈ 2.35 µM)	1.5 µg/mL (≈ 8.81 µM)	25 µg/mL (≈ 147 µM)	12.5 µg/mL (≈ 73.4 µM)	> 50 µg/mL	0.8 µg/mL (≈ 4.7 µM)	0.8 µg/mL (≈ 4.7 µM)	12.5 µg/mL (≈ 73.4 µM)	0.8 µg/mL (≈ 4.7 µM)	> 50 µg/mL	25 µg/mL (≈ 147 µM)	25 µg/mL (≈ 147 µM)	12.5 µg/mL (≈ 73.4 µM)	0.8 µg/mL (≈ 4.7 µM)	12.5 µg/mL (≈ 73.4 µM)	> 50 µg/mL	> 50 µg/mL	0.8 µg/mL (≈ 4.7 µM)	MIC [3]: 6.2 µg/mL (≈ 36.4 µM); MIC [11]: 1.5 µg/mL (≈ 8.81 µM); MIC [13]: 1.5 µg/mL (≈ 8.81 µM); MIC [19]: 0.4 µg/mL (≈ 2.35 µM); MIC [22]: 0.8 µg/mL (≈ 4.7 µM); MIC [24]: 6.2 µg/mL (≈ 36.4 µM); MIC [28]: 6.2 µg/mL (≈ 36.4 µM); MIC [25]: 0.4 µg/mL (≈ 2.35 µM)
